Consider 8 compounds from patent US11702404B2, “GLP-1R modulating compounds” (priority 2019, dated 2023).

Like-named read-outs stand apart in the source and are kept apart here.

One series has as its target GLP-1R (Homo sapiens, UniProt P43220). The series is described as follows: GLP-1R activation: cAMP increase in CHO cells stably expressing GLP-1R. In kind it is cell-based. Conditions: read-out: EC50.
Series [1] in a line: Microsomal stability, human liver microsomes (predicted hepatic clearance). Conditions: predicted from in vitro microsomal stability data.
Where [2] appears, read: cAMP increase, CHO cells stably expressing GLP-1R, 10 point dose response, 30 minutes incubation.

The EC50 is the concentration at which the effect is half-maximal.

Sequence of GLP-1R (P43220 24-463): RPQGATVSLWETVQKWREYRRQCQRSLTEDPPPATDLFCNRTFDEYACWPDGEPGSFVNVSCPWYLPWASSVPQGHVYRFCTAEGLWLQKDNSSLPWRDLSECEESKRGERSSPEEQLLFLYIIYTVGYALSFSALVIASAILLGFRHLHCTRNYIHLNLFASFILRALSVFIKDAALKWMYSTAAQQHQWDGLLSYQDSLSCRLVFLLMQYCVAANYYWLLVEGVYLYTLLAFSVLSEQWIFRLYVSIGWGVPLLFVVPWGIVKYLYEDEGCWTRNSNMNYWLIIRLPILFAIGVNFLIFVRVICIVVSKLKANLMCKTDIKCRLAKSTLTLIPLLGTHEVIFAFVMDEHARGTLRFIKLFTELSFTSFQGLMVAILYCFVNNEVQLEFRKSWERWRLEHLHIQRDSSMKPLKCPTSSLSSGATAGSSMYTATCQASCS

With `COCCn1c(Cc2cc(F)c(-c3cccc(OCc4ccc(-c5cnccn5)cc4F)n3)cc2F)nc2ccc(C(=O)O)cc21` [Example 916], on GLP-1R (setting [2]), the EC50 amounted to 2.18 nM. Further, in series [1], the “Predicted Hepatic Clearance (Pred. Cl.)” value was 1.83 mL/min/kg.

For `COCCn1c(Cc2cc(F)c(-c3cccc(OCc4ccc(-c5ccn(C)n5)cc4F)n3)cc2F)nc2ccc(C(=O)O)cc21` [Example 917], the EC50 at GLP-1R (setting [2]) was determined as 56.7 nM. In series [1], the “Predicted Hepatic Clearance (Pred. Cl.)” value was 1.83 mL/min/kg.

Consider `CO[C@H]1CN(C(C)=O)C[C@H]1n1c(Cc2cc(F)c(-c3cccc(OCc4ccc(C#N)cc4F)n3)cc2F)nc2ccc(C(=O)O)cc21` [Example 918, 3-[(3R,4S)-1-acetyl-4-methoxy-pyrrolidin-3-yl]-2-[[4-[6-[(4-cyano-2-fluoro-phenyl)methoxy]-2-pyridyl]-2,5-difluoro-phenyl]methyl]benzimidazole-5-carboxylic acid], for which, on GLP-1R, the EC50 turned out to be 24.9 nM. Besides, in series [1], the “Predicted Hepatic Clearance (Pred. Cl.)” value is 4.83 mL/min/kg.

In the case of `CO[C@@H]1CN(C(C)=O)C[C@@H]1n1c(Cc2cc(F)c(-c3cccc(OCc4ccc(C#N)cc4F)n3)cc2F)nc2ccc(C(=O)O)cc21` [Example 919], the half-maximal effective concentration (EC50) at GLP-1R came out at 840 nM. The “Predicted Hepatic Clearance (Pred. Cl.)” value in series [1] was 4.17 mL/min/kg.

Consider `CO[C@@H]1CN(C(C)=O)C[C@H]1n1c(Cc2cc(F)c(-c3cccc(OCc4ccc(C#N)cc4F)n3)cc2F)nc2ccc(C(=O)O)cc21` [Example 920], for which, on GLP-1R, the EC50 turned out to be 58.5 nM. Moreover, the “Predicted Hepatic Clearance (Pred. Cl.)” value in series [1] is 4.67 mL/min/kg.

With `Cc1cc2nc(Cc3cc(F)c(-c4cccc(OCc5ccc(C#N)cc5F)n4)cc3F)n(C[C@@H]3CCO3)c2cc1C(=O)O` [Example 921], at GLP-1R (setting [2]), the EC50 was found to be 0.33 nM. Besides, in series [1], the “Predicted Hepatic Clearance (Pred. Cl.)” value is 2.83 mL/min/kg.

For the compound `CC(=O)N1CC[C@@H]1Cn1c(Cc2cc(F)c(-c3cccc(OCc4ccc(C#N)cc4F)n3)cc2F)nc2ccc(C(=O)O)cc21` [Example 925, (R)-1-((1-acetylazetidin-2-yl)methyl)-2-(4-(6-((4-cyano-2-fluorobenzyl)oxy)pyridin-2-yl)-2,5-difluorobenzyl)-1H-benzo[d]imidazole-6-carboxylic acid], the EC50 on GLP-1R is 3.63 nM. Also, in series [1], the “Predicted Hepatic Clearance (Pred. Cl.)” value was 5.83 mL/min/kg.

On to `COCCn1c(Cc2cc(F)c(-c3cccc(OCc4ccc(C#N)cc4F)n3)cc2F)nc2cc(C)c(C(=O)O)cc21` [Example 926, 2-(4-(6-((4-cyano-2-fluorobenzyl)oxy)pyridin-2-yl)-2,5-difluorobenzyl)-1-(2-methoxyethyl)-5-methyl-1H-benzo[d]imidazole-6-carboxylic acid], for which the 50% effective concentration (EC50) on GLP-1R (setting [2]) came to 11.8 nM. In addition, the “Predicted Hepatic Clearance (Pred. Cl.)” value in series [1] was 1.83 mL/min/kg.
